Here are results for 1 compound from patent US4839379A, “Substituted azabicycloalkanes, the use thereof, pharmaceutical compositions containing them” (Ciba-Geigy Corporation, priority 1982, dated 1989).

This assay deals with aromatase. As to the kind of experiment: aromatase assay according to Graves and Salhanick using human placental microsomes in vitro. Type of assay: biochemical. How it is done: The novel compounds of formula I and their pharmaceutically acceptable salts have, for example, valuable pharmacological properties as aromatase inhibitors. […] In this experimental method, the formation of water with tritium isotopes and 17β-oestradiol obtained from [1β,2β--^3 H]-testosterone is measured as a result of the action of a compound of the formula I on the formation of the hydrogenated form of the aromatase coenzyme, nicotinamide adenine dinucleotide phosphate (NADPH).

For the compound `Nc1ccc(C23CC2C(=O)N(CC2CCCCC2)C3=O)cc1` (centres unmarked) [Example 12, 1-(4-Aminophenyl)-3-cyclohexylmethyl-3-azabicyclo[3.1.0]hexane-2,4-dione], the “enzyme activity (NADPH content); content of water with radioactive tritium isotopes formed from [1β,2β-3H]-testosterone” value (compared with measurements without addition of compound) is on record as “substantially reduces the enzyme activity”. In addition, under “comparison with aminoglutethimide”, the “diminution of enzyme activity in comparison measurements with known aromatase inhibitors” value was “substantially greater than with the addition of other known aromatase inhibitors, e.g. aminoglutethimide”.
